Test results reported in patent US10730905B2, “Substituted heteropentadieno-pyrrolopyrimidine ribonucleosides for therapeutic use” (USTAV ORGANICKE CHEMIE A BIOCHEMIE AV CR, V.V.I., priority 2016, dated 2020).

Legend:
[1] = tested on: K562-Tax (human acute myeloid leukemia, paclitaxel resistant subline); assay: MTT cytotoxic test, K562-TAX; format: cell-based; conditions: K562-TAX cells
From the text: (§1) MTT test (Nosková V. et al., Neoplasma 2002, 49, 418-425) was used for in vitro evaluation of antitumor activities of newly synthesized compounds on cell lines derived from normal tissues or tumors. Specifically, cell lines K562 (human acute myeloid leukemia); K562-Tax (human acute myeloid leukemia, paclitaxel resistant subline, overexpress multiple drug resistant protein PgP); CEM (T-lymfoblastic leukemia); CEM-DNR-bulk (T-lymfoblastic leukemia, doxorubicin resistant); A549 (human lung adenocarcinoma); HCT116p53 wt (human colorectal cancer, wild-type); HCT116p53−/− (human colorectal cancer, mutant p53) a U2OS (human bone osteosarcoma) were used. Express characteristics, susceptibility profiles of classic antitumor drugs as well as methodology of cytotoxic MTT test have been repeatedly published (Denizot, F.; Lang, R., J. Immunol. Meth. 1986, 89, 271-277; Noskova, V., see above; S̆arek J. et al., J, Med. Chem., 2003).

[2] = tested on: HCT116p53 wt (human colorectal cancer, wild-type); assay: MTT cytotoxic test, HCT116; format: cell-based; conditions: HCT-116, HCT116 cells, p53 wild type
From the text: as §1

[3] = tested on: U2OS (human bone osteosarcoma); assay: MTT cytotoxic test, U2OS; format: cell-based; conditions: U2OS cells
From the text: as §1

[4] = tested on: A549 (human lung adenocarcinoma); assay: MTT cytotoxic test, A549; format: cell-based; conditions: A549 cells
From the text: as §1

[5] = MTT cytotoxic test, MRC-5; format: cell-based; conditions: MRC-5 cells (normal fibroblasts), MRC-5 normal human fibroblasts
[6] = tested on: K562 (human acute myeloid leukemia); assay: MTT cytotoxic test, K562; format: cell-based; conditions: K562 cells
From the text: as §1

[7] = tested on: CEM-DNR-bulk (T-lymfoblastic leukemia, doxorubicin resistant); assay: MTT cytotoxic test, CEM-DNR; format: cell-based; conditions: Homo sapiens, CEM-DNR cells
From the text: as §1

[8] = tested on: CCRF-CEM (CEM, T-lymfoblastic leukemia); assay: MTT cytotoxic test, CCRF-CEM; format: cell-based; conditions: Homo sapiens, CCRF-CEM cells
From the text: as §1

[9] = tested on: HCT116p53−/− (human colorectal cancer, mutant p53); assay: MTT cytotoxic test, HCT116p53; format: cell-based; conditions: HCT116p53 cells (p53 −/−)
From the text: as §1

Row | SMILES | IC50 [1] | IC50 [2] | IC50 [3] | IC50 [4] | IC50 [5] | IC50 [6] | IC50 [7] | IC50 [8] | IC50 [9] | melting point
1 | Cc1ncnc2c1c1occc1n2[C@@H]1O[C@H](CO)[C@@H](O)[C@H]1O [Compound 1a, 4-Methyl-8-(β-D-ribofuranosyl)-8H-furo[2′,3′:4,5]pyrrolo[2,3-d]pyrimidine] | 0.9 to 10 µM | 0.2 to 0.9 µM | 0.2 to 0.9 µM | 0.9 to 10 µM | 25 to 50 µM | 0.2 to 0.9 µM | 25 to 50 µM | 0.2 to 0.9 µM | 0.2 to 0.9 µM | 
2 | COc1ncnc2c1c1occc1n2[C@@H]1O[C@H](CO)[C@@H](O)[C@H]1O [Compound 1b, 4-Methoxy-8-(β-D-ribofuranosyl)-8H-furo[2′,3′:4,5]pyrrolo[2,3-d]pyrimidine] | 0.2 to 0.9 µM | 0.2 to 0.9 µM | 0.2 to 0.9 µM | 0.9 to 10 µM | 10 to 25 µM | 0.2 to 0.9 µM | 0.9 to 10 µM | 0.01 to 0.2 µM | 0.2 to 0.9 µM | 216 to 219 °C
3 | CSc1ncnc2c1c1occc1n2[C@@H]1O[C@H](CO)[C@@H](O)[C@H]1O [Compound 1c] | 0.9 to 10 µM | 0.2 to 0.9 µM | 0.2 to 0.9 µM | 0.9 to 10 µM | 0.9 to 10 µM | 0.2 to 0.9 µM | 0.9 to 10 µM | 0.2 to 0.9 µM | 0.2 to 0.9 µM | 213 to 217 °C
4 | Nc1ncnc2c1c1occc1n2[C@@H]1O[C@H](CO)[C@@H](O)[C@H]1O [Compound 1d, 8-(β-D-ribofuranosyl)-8H-furo[2′,3′:4,5]pyrrolo[2,3-d]pyrimidin-4-amine] | 25 to 50 µM | 25 to 50 µM | 0.9 to 10 µM | 25 to 50 µM | 25 to 50 µM | 0.9 to 10 µM | 25 to 50 µM | 25 to 50 µM | 25 to 50 µM | 246 to 253 °C
5 | OC[C@H]1O[C@@H](n2c3ccoc3c3c(-c4ccco4)ncnc32)[C@H](O)[C@@H]1O [Compound 1e, 4-(Furan-2-yl)-8-(β-D-ribofuranosyl)-8H-furo[2′,3′:4,5]pyrrolo[2,3-d]pyrimidine] | 0.9 to 10 µM | 25 to 50 µM | 0.9 to 10 µM | 25 to 50 µM | 25 to 50 µM | 0.9 to 10 µM | 25 to 50 µM | 0.2 to 0.9 µM | 25 to 50 µM | 
6 | OC[C@H]1O[C@@H](n2c3ccoc3c3c(-c4ccoc4)ncnc32)[C@H](O)[C@@H]1O [Compound 1f, 4-(Furan-3-yl)-8-(β-D-ribofuranosyl)-8H-furo[2′,3′:4,5]pyrrolo[2,3-d]pyrimidine] | 0.9 to 10 µM | 10 to 25 µM | 0.2 to 0.9 µM | 25 to 50 µM | 25 to 50 µM | 0.2 to 0.9 µM | 25 to 50 µM | 0.2 to 0.9 µM | 10 to 25 µM | 
7 | OC[C@H]1O[C@@H](n2c3ccoc3c3c(-c4cc5ccccc5o4)ncnc32)[C@H](O)[C@@H]1O [Compound 1g, 4-(Benzofuran-2-yl)-8-(β-D-ribofuranosyl)-8H-furo[2′,3′:4,5]pyrrolo[2,3-d]pyrimidine] | 10 to 25 µM | 25 to 50 µM | 25 to 50 µM | 25 to 50 µM | 25 to 50 µM | 25 to 50 µM | 25 to 50 µM | 10 to 25 µM | 25 to 50 µM | 
8 | CN(C)c1ncnc2c1c1occc1n2[C@@H]1O[C@H](CO)[C@@H](O)[C@H]1O [Compound 1h, N,N-dimethyl-8-(β-D-ribofuranosyl)-8H-furo[2′,3′:4,5]pyrrolo[2,3-d]pyrimidin-4-amine] | 25 to 50 µM | 25 to 50 µM | 25 to 50 µM | 25 to 50 µM | 25 to 50 µM | 25 to 50 µM | 25 to 50 µM | 25 to 50 µM | 25 to 50 µM | 212 to 255 °C (dec.)
9 | Cc1ncnc2c1c1c(ccn1C)n2[C@@H]1O[C@H](CO)[C@@H](O)[C@H]1O [Compound 2a, 4,5-Dimethyl-8-(β-D-ribofuranosyl)-5,8-dihydropyrrolo[2′,3′:4,5]pyrrolo[2,3-d]pyrimidine] | 25 to 50 µM | 0.2 to 0.9 µM | 0.2 to 0.9 µM |  | 25 to 50 µM | 0.2 to 0.9 µM | 25 to 50 µM | 0.2 to 0.9 µM | 0.2 to 0.9 µM | 237 to 241 °C
10 | COc1ncnc2c1c1c(ccn1C)n2[C@@H]1O[C@H](CO)[C@@H](O)[C@H]1O [Compound 2b, 4-Methoxy-5-methyl-8-(β-D-ribofuranosyl)-5,8-dihydropyrrolo[2′,3′:4,5]pyrrolo[2,3-d]pyrimidine] | 25 to 50 µM | 0.2 to 0.9 µM | 0.9 to 10 µM | 25 to 50 µM | 25 to 50 µM | 0.2 to 0.9 µM | 25 to 50 µM | 0.2 to 0.9 µM | 0.2 to 0.9 µM | 231 to 234 °C
11 | CSc1ncnc2c1c1c(ccn1C)n2[C@@H]1O[C@H](CO)[C@@H](O)[C@H]1O [Compound 2c, 5-Methyl-4-(methylsulfanyl)-8-(β-D-ribofuranosyl)-5,8-dihydropyrrolo[2′,3′:4,5]pyrrolo-[2,3-d]-pyrimidine] | 25 to 50 µM | 0.2 to 0.9 µM | 0.9 to 10 µM | 25 to 50 µM | 25 to 50 µM | 0.2 to 0.9 µM | 25 to 50 µM | 0.2 to 0.9 µM | 0.2 to 0.9 µM | 212 to 214 °C
12 | Cn1ccc2c1c1c(N)ncnc1n2[C@@H]1O[C@H](CO)[C@@H](O)[C@H]1O [Compound 2d, 5-methyl-8-(β-D-ribofuranosyl)-5,8-dihydropyrrolo[2′,3′:4,5]pyrrolo[2,3-d]pyrimidin-4-amine] | 25 to 50 µM | 25 to 50 µM | 25 to 50 µM | 25 to 50 µM | 25 to 50 µM | 25 to 50 µM | 25 to 50 µM | 25 to 50 µM | 25 to 50 µM | 240 to 245 °C (dec.)
13 | Cn1ccc2c1c1c(-c3ccco3)ncnc1n2[C@@H]1O[C@H](CO)[C@@H](O)[C@H]1O [Compound 2e, 4-(Furan-2-yl)-5-methyl-8-(β-D-ribofuranosyl)-5,8-dihydropyrrolo[2′,3′:4,5]pyrrolo[2,3-d]pyrimidine] | 25 to 50 µM | 25 to 50 µM | 0.9 to 10 µM | 25 to 50 µM | 25 to 50 µM | 25 to 50 µM | 25 to 50 µM | 25 to 50 µM | 25 to 50 µM | 245 to 253 °C
14 | Cn1ccc2c1c1c(-c3ccoc3)ncnc1n2[C@@H]1O[C@H](CO)[C@@H](O)[C@H]1O [Compound 2f, 4-(Furan-3-yl)-5-methyl-8-(β-D-ribofuranosyl)-5,8dihydropyrrolo[2′,3′:4,5]pyrrolo[2,3-d]pyrimidine] | 25 to 50 µM | 25 to 50 µM | 0.9 to 10 µM | 25 to 50 µM | 25 to 50 µM | 0.9 to 10 µM | 25 to 50 µM | 25 to 50 µM | 0.9 to 10 µM | 202 to 207 °C
15 | Cn1ccc2c1c1c(-c3cc4ccccc4o3)ncnc1n2[C@@H]1O[C@H](CO)[C@@H](O)[C@H]1O [Compound 2g, 4-(Benzofuran-2-yl)-5-methyl-8-(β-D-ribofuranosyl)-5,8-dihydropyrrolo[2′,3′:4,5]pyrrolo[2,3-d]pyrimidine] | 25 to 50 µM | 25 to 50 µM | 25 to 50 µM | 25 to 50 µM | 25 to 50 µM | 25 to 50 µM | 25 to 50 µM | 10 to 25 µM | 25 to 50 µM | 145 to 154 °C
16 | CN(C)c1ncnc2c1c1c(ccn1C)n2[C@@H]1O[C@H](CO)[C@@H](O)[C@H]1O [Compound 2h, N,N,5-trimethyl-8-(β-D-ribofuranosyl)-5,8-dihydropyrrolo[2′,3′:4,5]pyrrolo[2,3-d]pyrimidin-4-amine] | 25 to 50 µM | 25 to 50 µM | 25 to 50 µM | 25 to 50 µM | 25 to 50 µM | 25 to 50 µM | 25 to 50 µM | 25 to 50 µM | 25 to 50 µM | 99 to 106 °C
17 | Cn1ccc2c1c1c(Cl)ncnc1n2[C@@H]1O[C@H](CO)[C@@H](O)[C@H]1O [Compound 2i, 4-chloro-5-methyl-8-(β-D-ribofuranosyl)-5,8-dihydropyrrolo[2′,3′:4,5]pyrrolo[2,3-d]pyrimidine] | 25 to 50 µM | 0.01 to 0.2 µM | 0.9 to 10 µM | 0.9 to 10 µM | 25 to 50 µM | 0.01 to 0.2 µM | 25 to 50 µM | 0.01 to 0.2 µM | 0.01 to 0.2 µM | 217 to 219 °C
